Square brackets hold non-standard residues; d marks the D form. Peptide text beside a SMILES is read from it. * marks the point of attachment. NMeVal(N-(CH2)3COOH) = CC(C)[C@@H](C(=O)*)N(C)CCCC(=O)O; Dolaproine = CO[C@@H]([C@@H]1CCCN1)[C@@H](C)C(=O)O; Dil = CC[C@H](C)[C@H](NC)[C@@H](CC(=O)O)OC; X3 = CC(C)[C@@H](C(=O)*)N(C)CCCCCC(=O)O; NMe(benzyl) = CN(Cc1ccccc1)*; X4 = C1C2CC3CC1CC(CO*)(C2)C3; X6 = C1C2CC3CC1CC(O*)(C2)C3; X2 = c1ccc2c(CO*)cccc2c1; NHBn = c1ccc(CN*)cc1; OBn = c1ccc(CO*)cc1; OtBu = CC(C)(C)O*
How the values were obtained:
[1] = tested on: human renal carcinoma cell line 786-0; experiment: Anti-proliferative effect on renal cell carcinoma 786-0 cell line (MTT assay); type: cell-based; details: Homo sapiens, 786-0 cells, incubation 48 to 96 hours, serum free medium or 2% FCS
Description: B-1. Determination of Anti-proliferative Effects of Renal Cell Carcinoma 786-0 Cell Line:
A defined number of cells of the human renal carcinoma cell line 786-0 were cultured in a 96 well micro titer plate in rich medium (2500 or 7.000 cells/well) and then incubated over night at 37° C./5% CO2. After 18 hours the seed medium was replaced by a serum free medium or medium with 2% FCS. The treatment began with measuring out the respective test substances in varying concentrations (10^−5 M to 10^−14 M). Incubation times of between 48 hours and 96 hours were chosen. The proliferation was determined by means of the MTT assay (ATCC, Manassas, Va., USA, catalogue no. 30-1010K). After completion of incubation period the MTT reagent was incubated with the cells for 4 hours before lysis occurred over night by measuring out the detergent. The created stain was detected at 570 nm. The proliferation of the cells, which were treated identically to the other cells but without the test substance was defined as the 100% value. The data obtained from this test represent triple determinations and at least two experiments had been carried out independently of each other.

HT-29 wt cell line = experiment: Anti-proliferative effect on HT-29 wt cell line (MTT assay); type: cell-based, human; details: Homo sapiens, HT-29 wt cells, incubation 48 to 96 hours, medium with 10% FCS
Description: B-2. Determination of Anti-proliferative Effects of HT-29 wt Cell Line:
After 18 hours the seed medium was replaced by a fresh medium with 10% FCS. The treatment started with measuring out the respective test substance. The dose-response curves were determined of the investigative substances with a concentration of 10^−5 M to 10^−14 M (1:10 dilutions). Incubation times of between 48 hours and 96 hours were chosen. The proliferation was detected by means of the MTT assay (ATCC, Manassas, Va., USA, catalogue no. 30-1010K). After completion of selected incubation period the MTT reagent was incubated with the cells for 4 hours before lysis occurred over night by measuring out the detergent. The created stain was detected at 570 nm. The proliferation of the cells, which were treated identically to the other cells but without the test substance, was defined as the 100% value. The data obtained from this test represent triple determinations and at least two experiments had been carried out independently of each other.

CC[C@H](C)[C@@H]([C@@H](CC(=O)N1CCC[C@H]1[C@H](OC)[C@@H](C)C(=O)N[C@@H](Cc1ccccc1)C(=O)OCc1cccc2ccccc12)OC)N(C)C(=O)[C@@H](NC(=O)[C@H](C(C)C)N(C)CCCC(=O)O)C(C)C [Example 1, N-(3-carboxypropyl)-N-methyl-L-valyl-N-[(3R,4S,5S)-3-methoxy-1-{(2S)-2-[(1R,2R)-1-methoxy-2-methyl-3-{[(2S)-1-(1-naphthylmethoxy)-1-oxo-3-phenylpropane-2-yl]amino}-3-oxopropyl]pyrrolidin-1-yl}-5-methyl-1-oxoheptan-4-yl]-N-methyl-L-valinamide] ({NMeVal(N-(CH2)3COOH)}-V[Dil][Dolaproine]F-X2)
IC50 [1]: 1.1 nM | IC50 (HT-29 wt cell line): 0.1 nM

CC[C@H](C)[C@@H]([C@@H](CC(=O)N1CCC[C@H]1[C@H](OC)[C@@H](C)C(=O)N[C@@H](Cc1ccccc1)C(=O)OC12CC3CC(CC(C3)C1)C2)OC)N(C)C(=O)[C@@H](NC(=O)[C@H](C(C)C)N(C)CCCC(=O)O)C(C)C [Example 2, N-(3-carboxypropyl)-N-methyl-L-valyl-N-[(3R,4S,5S)-1-{(2S)-2-[(1R,2R)-3-{[(2S)-1-(adamantane-1-yloxyy)-1-oxo-3-phenylpropane-2-yl]amino}-1-methoxy-2-methyl-3-oxopropyl]pyrrolidin-1-yl}-3-methoxy-5-methyl-1-oxoheptan-4-yl]-N-methyl-L-valinamide] ({NMeVal(N-(CH2)3COOH)}-V[Dil][Dolaproine]F-X6)
IC50 [1]: 2.2 nM

CC[C@H](C)[C@@H]([C@@H](CC(=O)N1CCC[C@H]1[C@H](OC)[C@@H](C)C(=O)N[C@@H](Cc1ccccc1)C(=O)OCC12CC3CC(CC(C3)C1)C2)OC)N(C)C(=O)[C@@H](NC(=O)[C@H](C(C)C)N(C)CCCC(=O)O)C(C)C [Example 3, N-(3-carboxypropyl)-N-methyl-L-valyl-N-[(3R,4S,5S)-1-{(2S)-2-[(1R,2R)-3-{[(2S)-1-(adamantane-1-ylmethoxy)-1-oxo-3-phenylpropane-2-yl]amino}-1-methoxy-2-methyl-3-oxopropyl]pyrrolidin-1-yl}-3-methoxy-5-methyl-1-oxoheptan-4-yl]-N-methyl-L-valinamide] ({NMeVal(N-(CH2)3COOH)}-V[Dil][Dolaproine]F-X4)
IC50 [1]: 0.7 nM

CC[C@H](C)[C@@H]([C@@H](CC(=O)N1CCC[C@H]1[C@H](OC)[C@@H](C)C(=O)N[C@H](COCc1ccccc1)Cc1ccccc1)OC)N(C)C(=O)[C@@H](NC(=O)[C@H](C(C)C)N(C)CCCC(=O)O)C(C)C [Example 4, N-(3-carboxypropyl)-N-methyl-L-valyl-N-[(3R,4S,5S)-1-{(2S)-2-[(1R,2R)-3-{[(2S)-1-(benzyloxy)-3-phenylpropane-2-yl]amino}-1-methoxy-2-methyl-3-oxopropyl]pyrrolidin-1-yl}-3-methoxy-5-methyl-1-oxoheptan-4-yl]-N-methyl-L-valinamide]
IC50 [1]: 0.8 nM | IC50 (HT-29 wt cell line): 0.1 nM

CC[C@H](C)[C@@H]([C@@H](CC(=O)N1CCC[C@H]1[C@H](OC)[C@@H](C)C(=O)N[C@@H](Cc1ccccc1)C(=O)OCc1ccccc1)OC)N(C)C(=O)[C@@H](NC(=O)[C@H](C(C)C)N(C)CCCC(=O)O)C(C)C [Example 5, N-(3-carboxypropyl)-N-methyl-L-valyl-N-[(3R,4S,5S)-1-{(2S)-2-[(1R,2R)-3-{[(2S)-1-(benzyloxy)-1-oxo-3-phenylpropan-2-yl]amino}-1-methoxy-2-methyl-3-oxopropyl]pyrrolidin-1-yl}-3-methoxy-5-methyl-1-oxoheptan-4-yl]-N-methyl-L-valinamide] ({NMeVal(N-(CH2)3COOH)}-V[Dil][Dolaproine]F-OBn)
IC50 [1]: 0.2 nM

CC[C@H](C)[C@@H]([C@@H](CC(=O)N1CCC[C@H]1[C@H](OC)[C@@H](C)C(=O)N[C@H](C(=O)OCc1ccccc1)[C@@H](C)c1ccccc1)OC)N(C)C(=O)[C@@H](NC(=O)[C@H](C(C)C)N(C)CCCC(=O)O)C(C)C [Example 6, N-(3-carboxypropyl)-N-methyl-L-valyl-N-[(3R,4S,5S)-1-{(2S)-2-[(1R,2R)-3-{[(2S,3S)-1-(benzyloxy)-1-oxo-3-phenylbutane-2-yl]amino}-1-methoxy-2-methyl-3-oxopropyl]pyrrolidin-1-yl}-3-methoxy-5-methyl-1-oxoheptan-4-yl]-N-methyl-L-valinamide]
IC50 [1]: 1.1 nM | IC50 (HT-29 wt cell line): 0.4 nM

CC[C@H](C)[C@@H]([C@@H](CC(=O)N1CCC[C@H]1[C@H](OC)[C@@H](C)C(=O)N[C@@H](Cc1ccccc1)C(=O)N(C)Cc1ccccc1)OC)N(C)C(=O)[C@@H](NC(=O)[C@H](C(C)C)N(C)CCCC(=O)O)C(C)C [Example 9, N-(3-carboxypropyl)-N-methyl-L-valyl-N-[(3R,4S,5S)-1-{(2S)-2-[(1R,2R)-3-({(2S)-1-[benzyl(methyl)amino]-1-oxo-3-phenylpropane-2-yl}amino)-1-methoxy-2-methyl-3-oxopropyl]pyrrolidin-1-yl}-3-methoxy-5-methyl-1-oxoheptan-4-yl]-N-methyl-L-valinamide] ({NMeVal(N-(CH2)3COOH)}-V[Dil][Dolaproine]F-{NMe(benzyl)})
IC50 [1]: 53 nM | IC50 (HT-29 wt cell line): 4.4 nM

CC[C@H](C)[C@@H]([C@@H](CC(=O)N1CCC[C@H]1[C@H](OC)[C@@H](C)C(=O)N[C@@]1(C(=O)OCc2ccccc2)C[C@@H]1c1ccccc1)OC)N(C)C(=O)[C@@H](NC(=O)[C@H](C(C)C)N(C)CCCC(=O)O)C(C)C [Example 10, N-(3-carboxypropyl)-N-methyl-L-valyl-N-[(3R,4S,5S)-1-{(2S)-2-[(1R,2R)-3-({(1S,2R)-1-[(benzyloxy)carbonyl]-2-phenylcyclopropyl}amino)-1-methoxy-2-methyl-3-oxopropyl]pyrrolidin-1-yl}-3-methoxy-5-methyl-1-oxoheptan-4-yl]-N-methyl-L-valinamide]
IC50 [1]: 81 nM

CC[C@H](C)[C@@H]([C@@H](CC(=O)N1CCC[C@H]1[C@H](OC)[C@@H](C)C(=O)N[C@@H](Cc1ccccc1)C(=O)NCc1ccccc1)OC)N(C)C(=O)[C@@H](NC(=O)[C@H](C(C)C)N(C)CCCC(=O)O)C(C)C [Example 15, N-(3-carboxypropyl)-N-methyl-L-valyl-N-[(3R,4S,5S)-1-{(2S)-2-[(1R,2R)-3-{[(2S)-1-(benzylamino)-1-oxo-3-phenylpropan-2-yl]amino}-1-methoxy-2-methyl-3-oxopropyl]pyrrolidin-1-yl}-3-methoxy-5-methyl-1-oxoheptan-4-yl]-N-methyl-L-valinamide] ({NMeVal(N-(CH2)3COOH)}-V[Dil][Dolaproine]F-NHBn)
IC50 [1]: 0.9 nM

CC[C@H](C)[C@@H]([C@@H](CC(=O)N1CCC[C@H]1[C@H](OC)[C@@H](C)C(=O)N[C@@H](Cc1c[nH]c2ccccc12)C(=O)NCc1ccccc1)OC)N(C)C(=O)[C@@H](NC(=O)[C@H](C(C)C)N(C)CCCC(=O)O)C(C)C [Example 16, N-(3-carboxypropyl)-N-methyl-L-valyl-N-[(3R,4S,5S)-1-{(2S)-2-[(1R,2R)-3-{[(2S)-1-(benzyl-amino)-3-(1H-indol-3-yl)-1-oxopropane-2-yl]amino}-1-methoxy-2-methyl-3-oxopropyl]pyrrolidin-1-yl}-3-methoxy-5-methyl-1-oxoheptan-4-yl]-N-methyl-L-valinamide] ({NMeVal(N-(CH2)3COOH)}-V[Dil][Dolaproine]W-NHBn)
IC50 [1]: 12 nM | IC50 (HT-29 wt cell line): 0.1 nM

CC[C@H](C)[C@@H]([C@@H](CC(=O)N1CCC[C@H]1[C@H](OC)[C@@H](C)C(=O)N[C@@H](Cc1ccccc1)C(=O)OC(C)(C)C)OC)N(C)C(=O)[C@@H](NC(=O)[C@H](C(C)C)N(C)CCCC(=O)O)C(C)C [Example 20, N-(3-carboxypropyl)-N-methyl-L-valyl-N-[(3R,4S,5S)-1-{(2S)-2-[(1R,2R)-3-{[(2S)-1-tert.-butoxy-1-oxo-3-phenylpropane2-yl]amino}-1-methoxy-2-methyl-3-oxopropyl]pyrrolidin-1-yl}-3-methoxy-5-methyl-1-oxoheptan-4-yl]-N-methyl-L-valinamide] ({NMeVal(N-(CH2)3COOH)}-V[Dil][Dolaproine]F-OtBu)
IC50 [1]: 0.3 nM

CC[C@H](C)[C@@H]([C@@H](CC(=O)N1CCC[C@H]1[C@H](OC)[C@@H](C)C(=O)N[C@@H](Cc1c[nH]c2ccccc12)C(=O)NCc1ccccc1)OC)N(C)C(=O)[C@@H](NC(=O)[C@H](C(C)C)N(C)CCCCCC(=O)O)C(C)C [Example 28, N-(5-carboxypentyl)-N-methyl-L-valyl-N-[(3R,4S,5S)-1-{(2S)-2-[(1R,2R)-3-{[(2S)-1-(benzylamino)-3-(1H-indol-3-yl)-1-oxopropane-2-yl]amino}-1-methoxy-2-methyl-3-oxopropyl]pyrrolidin-1-yl}-3-methoxy-5-methyl-1-oxoheptan-4-yl]-N-methyl-L-valinamide] (X3-V[Dil][Dolaproine]W-NHBn)
IC50 (HT-29 wt cell line): 1.3 nM

Source: US8987209B2, “N-carboxyalkyl-auristatin and the use thereof” (Seattle Genetics, Inc., priority 2010, dated 2015)
